The source of these data is patent US12172964B2, “Tricyclic octacationic cyclophane and its use in complexation with perlene diimide dyes” (Northwestern University, priority 2020, dated 2024).

Where “and” joins values, the source holds several entries; their conditions need not be identical. Equal values may be shown once. Marks after values point to notes of the source that are not given here.

A short description of data set [1]: Isothermal titration calorimetry (ITC). It counts as binding. Particulars: for ΔG: directly determined by ITC. How it is done: In all ITC experiments, ExBox.4Cl and XCage.8CF3CO2 were used in titrations. Here we use ExBox^4+ and XCage^8+ for short. All of the solutions were prepared in spectroscopic grade solvents and equilibrated for 24 h at room temperature before use. All of the titrations were independently duplicated—shown below is one set of titration isotherms—and all isotherm fittings were used to calculate the average Ka and ΔH with relevant standard errors.
Isothermal titration was performed by TA Nano Isothermal Titration Calorimeter at 25° C. A hastelloy cell was used with an active cell volume 190 μL. The stirring speed was set at 150 rpm. Receptor and substrate solutions were prepared in Milli-Q water or MeCN and allowed to equilibrate overnight if necessary. […] After subtracting the heat of dilution, the resulting data were analyzed with NanoAnalyze software using a 1:1 binding model and plotted by Origin Lab 8.6 software.
On the technique in general: ITC needs no label: the signal is the heat of the interaction.

The nature of data set [2]: Binding thermodynamics of ExBox.4Cl towards PDI2 in water (fluorescence titration / ITC). On the procedure: Direct fluorescence titration experiments: […] All of the solutions were prepared in spectroscopic grade solvents and equilibrated for 24 h at room temperature before use. All of the titrations were independently duplicated—shown below is one set of titration isotherms—and all isotherm fittings were used to calculate the average Ka and ΔH with relevant standard errors. Isothermal titration was performed by TA Nano Isothermal Titration Calorimeter at 25° C. A hastelloy cell was used with an active cell volume 190 μL. The stirring speed was set at 150 rpm. Receptor and substrate solutions were prepared in Milli-Q water or MeCN and allowed to equilibrate overnight if necessary.

Data set [3] can be described thus: Binding constants by direct and displacement fluorescence titration. Particulars: for ΔG / Ka Fluorescence: 25° C.; for ΔG: estimated from fluorescence titrations. On the procedure: (§1) In all experiments shown below, ExBox.4Cl and XCage.8CF3CO2 were used in titration studies. Here we use ExBox^4+ and XCage^8+ for short. All of the solutions were prepared in spectroscopic grade solvents and equilibrated for 24 h at room temperature before use. All of the studies were independently duplicated and the corresponding isotherms were fitted to calculate the average Ka or kon values with the relevant standard errors.
Direct fluorescence titration experiments: Since the association between PDI2 and ExBox^4+ in H2O produces turn-on fluorescence, we tracked the increase of fluorescence (ex: 545 nm, em: 555 nm) of PDI2 by varying equivalents of ExBox^4+. Caffeine is not fluorescent in H2O and its association with XCage^8+ quenches the fluorescence of XCage^8+. Thus, the fluorescence quenching of XCage^8+ was tracked by the addition of Caffeine. In MeCN, the fluorescence of perylene is quenched by XCage^8+ and thus the titration was performed by tracking the fluorescence quenching of Perylene. A plot of fluorescent intensity versus receptor concentration [R]0 or substrate concentration [S]0 was fitted with a nonlinear least-squares fitting equation for 1:1 binding model to calculate the binding constant Ka using Origin Lab 8.6 software.^S14, S15
Displacement fluorescence titration experiments in H2O: A large access of the competitor caffeine (10 mM) was pre-mixed with XCage^8+ (10 μM), and the solution was equilibrated for 30 min before titration. The substrate solution of PDI2 was injected in aliquots. For each injection, the guest displacement process was relatively slow and took about 3-10 min to reach the equilibrium as monitored by the change of fluorescence (ex: 560 nm, em: 660 nm) over time. At this excitation wavelength, PDI2⊂XCage^8+ is fluorescent; XCage^8+, PDI2 and Caffeine are nonfluorescent. The association constants were calculated by fitting the titration data with a nonlinear least-squares fitting equation for displacement binding using Origin Lab 8.6 software.^S14
Displacement fluorescence titration experiments in MeCN: Perylene (250 μM) was premixed with XCage^8+ (5 μM) in MeCN, and the solution was equilibrated for 30 min before titration. The substrate solution of PDI2 was injected in aliquot amount. Between each injection, the change of fluorescence intensity was monitored over time until the fluorescence (ex: 550 nm, em: 660 nm) intensity reached a steady state. At this excitation wavelength, […] is fluorescent while XCage^8+ and PDI2 are nonfluorescent. The association constants were calculated by fitting the titration data with a nonlinear least-squares fitting equation for displacement binding using Origin Lab 8.6 software.^S14

A short description of data set [4]: Binding kinetics of threading PDI2 into XCage.8CF3CO2, tracked by turn-on fluorescence. The following applies: water, second order kinetic model. How it is done:
as §1
Equal volume of PDI2 (1 μL, 100 μM) and XCage^8+ (1 μL, 100 μM) were mixed in H2O (1 mL) and the change of fluorescence (ex: 540 nm, em: 554 nm) was monitored over time. The resulting threading kinetics profiles were fitted using a second order kinetics model by Origin Lab 8.6 software. In MeCN, the change of fluorescence over time upon the formation of PDI2⊂XCage^8+ is too small to produce a kinetics profile as a result of the similar quantum yield between PDI2⊂XCage^8+ and PDI2.

The test system of data set [5] is MCF-7 cells. The experiment in a line: Live-cell confocal microscopy. It counts as cell-based, human. The following applies: MCF-7, 10 μM, 6 h. How it is done:
(§2) MCF-7 cells (human breast adenocarcinoma cell line) obtained from American Type Culture Collection (ATCC, Rockville, Md., USA) was utilized for cell culture experiments. MCF-7 cells were cultured in Dulbecco's Modified Eagle's Medium (DMEM) supplemented with 10% fetal bovine serum (FBS), penicillin (100 IU/mL) and streptomycin (100 μg/mL) at 37° C. in the presence of air (95%) and carbon dioxide (5%).
(§3) MCF-7 cells (1×10^5 cells/ml, 300 μL) were plated in each well of an 8-well chamber slide (ThermoFischer Scientific) and adhered overnight. PDI2 or PDI2⊂XCage^8+ was added to each well and incubated for 6 h or 24 h. Cells were then washed with PBS, and stained with LysoTracker green (lysosome stain, 1:1000 dilution) or NucBlue™ Live ReadyProbes™ Reagent (nuclear stain, 1 drop) or Hoechst 33342 nucleic acid stain (1:2000 dilution from 10 mg/mL stock). Plated cells were imaged within a humidified chamber using a 63× oil-immersion objective on a SP5 Leica Confocal Microscope using HyD detectors and lasers or a Deltavision Core Elite with a DAPI excitation filter (381-399 nm), DAPI emission filter (em: 411-459 nm) and TRITC emission filter (em: 571-617 nm) at equivalent light levels and exposure time. Intensity of signal in cells was measured with FIJI/ImageJ software.

Data set [6] deals with MCF-7 cells. The data set can be described thus: Live-cell widefield fluorescence imaging using energy transfer. Particulars: MCF-7, 20 μM, 6 h. It counts as cell-based, human. How it is done: as §2, §3
Data set [7] is described as follows: Photophysical characterization. It counts as physicochemical. How it is done:
Commercially available solvents and chemicals were purchased from Sigma-Aldrich and Fisher Scientific and used without further purification unless otherwise stated. Water was deionized, and micro filtered using Milli-Q water filtration station. Compounds PDI1^S1 and ExBox.4Cl^S2 were prepared using previously reported procedures. Thin layer chromatography (TLC) was performed on silica gel 60 F254 (E. Merck). Flash column chromatography was performed by Combiflash Rf 200 purification system. Reverse phase column chromatography was performed on Combiflash NEXTGEN 300+ system with SNAP ULTRA C18 cartridges which were purchased from Biotage. UV/Vis Absorption spectra were recorded in a glass cuvette using a UV-3600 Shimadzu spectrophotometer. Steady-state emission spectra were acquired in a quartz cuvette with an optical path-length of 10 mm containing the solution of interest using HORIBA Fluoromax4 spectrofluorometer, which was equipped with an integrating sphere for absolute photoluminescence quantum yield determination and time-correlated single-photon counting (TCSPC) module for emission decays. Nuclear magnetic resonance (NMR) spectra were recorded on Bruker AVANCE III 500 MHz spectrometer equipped with DCH CryoProbe, with working frequencies of 500 MHz for ^1H and 125 MHz for ^13C nuclei. […] High-resolution mass spectra were measured on an Agilent 6210 Time of Flight (TOF) LC-MS, using an ESI source, coupled with Agilent 1100 HPLC stack, using direct infusion (0.6 mL/min). Single crystal data were obtained on a Bruker Kappa APEX2 CCD diffractometer using Cu-Kα radiation. Detailed experimental procedures are provided below in the appropriate sections.
The fluorescence quantum yield of PDI dyes were measured by using rhodamine 6G in EtOH (Φf=0.95) as standard.^S2 The concentrations of rhodamine 6G and PDI dyes were adjusted to the absorption value 0.08 at 450 nm. The fluorescence spectrum of each solution was obtained with excitation at 450 nm, and the integrated area was used in the fluorescence quantum yield calculation. The estimated error for this method^S13 is ±10%. The fluorescent life-time was measured by Horiba Fluoromax-4 fluorometer equipped with TCSPC. Samples were excited by a laser at 374 nm, and the fluorescence decay over time was monitored at 560 nm. The fluorescent decay profiles were analyzed by a DAS6 software and matched either by a single exponential decay or double exponential decay model through mathematic fittings.

The next data set in a line: Solubility observations. It counts as physicochemical.

Consider `Cn1c(=O)c2c(ncn2C)n(C)c1=O` [Caffeine, reference compound], for which, in data set [1] (H2O, 25° C.), the TΔS is given as −1.5 kcal mo1^−1, the ΔH was −8.6 kcal mo1^−1 and the ΔG is on record as −7.1^c kcal mo1^−1.

On to `c1cc2ccc1C[n+]1ccc(cc1)-c1ccc(cc1)-c1cc[n+](cc1)Cc1ccc(cc1)C[n+]1ccc(cc1)-c1ccc(cc1)-c1cc[n+](cc1)C2` [ExBox.4Cl], for which, in data set [2], the binding affinity was determined as 2e+06 M⁻¹ and the binding enthalpy was -7.4 kcal/mol.

For the compound `COCCOCCOCCOCCOCCOCCOCCOCCOCCOCCOCCOCCOCCOCCOCCOCCOCCOCCOCCOCCOCCOCCOCCOCCOCCOCCOCCOCCOCCOCCOCCOCCOCCOCCOCCOCCOCCOCCOCCOCCOCCOCCOCCOCCOCCN1C(=O)c2ccc3c4ccc5c6c(ccc(c7ccc(c2c37)C1=O)c64)C(=O)N(CCOCCOCCOCCOCCOCCOCCOCCOCCOCCOCCOCCOCCOCCOCCOCCOCCOCCOCCOCCOCCOCCOCCOCCOCCOCCOCCOCCOCCOCCOCCOCCOCCOCCOCCOCCOCCOCCOCCOCCOCCOCCOCCOCCOCCOC)C5=O` [PDI2], the ΔG in data set [3] (H2O) was −14.8^d kcal mo1^−1. For the same compound, the “Ka Fluorescence” value in data set [3] (H2O, PDI2 by displacement in presence of 1000 molar equivalents of Caffeine) was 7.7e+10 M⁻¹. For the same compound, the ΔG in data set [3] (MeCN) is −13.0^d kcal mo1^−1. In data set [1] (H2O, 25° C.), the TΔS is listed as 0.7 kcal mo1^−1 and the ΔH was −14.1 kcal mo1^−1. Further, in data set [1] (MeCN, 25° C.), the TΔS came to 2.8 kcal mo1^−1 and the ΔH was −10.2 kcal mo1^−1. The “binding enthalpy in water higher than in MeCN” value in data set [1] (water versus MeCN) is 4 kcal/mol. The kon entry in data set [4] was “(4.8±1.1)×10^5 M^−1s^−1”. The “fluorescence in brightfield-merged confocal images” value in the data set on MCF-7 cells [5] is listed as “no fluorescence”. The “fluorescence signal, DAPI excitation filter (ex: 381-399 nm), TRITC emission filter (em: 571-617 nm)” value in the data set with MCF-7 cells [6] is listed as “did not show any fluorescence signal”. In addition, in data set [7] (H2O), the logε came out at 4.48, the Φf is on record as 0.04, the λabs is 497/534 and the λem was 542/586/633. In data set [7] (H2O), the λex is recorded as 461/502/529; the τ was 4.7 ns and 4.71 ns. Moreover, in data set [7] (MeCN), the fluorescence quantum yield turned out to be 66%; the logε was determined as 4.91; the “red shift of absorption and emission maxima of PDI2 in the presence of XCage.8CF3CO2” value is 23-25 nm; the Φf turned out to be 0.66. In data set [7] (MeCN), the λem is recorded as 529/568/617, the λex is recorded as 452/482/518 and the τ turned out to be 4.47 ns. Also, the fluorescence quantum yield in data set [7] (water) is given as 4%.

Turning to `c1cc2cccc3c4cccc5cccc(c(c1)c23)c54` [Perylene, reference compound], in data set [3] (MeCN, PDI2 by displacement of 50 molar equivalents of Perylene), the “Ka Fluorescence” value is 5e+06 M⁻¹. Also, in data set [1] (MeCN, 25° C.), the “Ka ITC” value was found to be 3.6e+06 M⁻¹, the TΔS was 2.0 kcal mo1^−1, the ΔH is −06.9 kcal mo1^−1 and the ΔG is −08.9^c kcal mo1^−1.

Take `c1cc2ccc1C[n+]1ccc(cc1)-c1cc3cc(c1)-c1cc4cc(c1)-c1cc[n+](cc1)Cc1ccc(cc1)C[n+]1ccc(cc1)-c1cc(cc(c1)-c1cc(cc(c1)-c1cc[n+](cc1)Cc1ccc(cc1)C[n+]1ccc-3cc1)-c1cc[n+](cc1)C2)-c1cc[n+](cc1)Cc1ccc(cc1)C[n+]1ccc-4cc1` [XCage.8CF3CO2]: the “binding constant for Perylene, times higher than that of ExBox^4+.4PF6” value in data set [3] (MeCN) is “about 86”. Moreover, in data set [3] (water), the “enhancement of binding affinity towards PDI2 compared with ExBox.4Cl (factor)” value is 38,000. In addition, in data set [1] (water, guest PDI2), the “TΔΔS, loss of binding entropy compared with ExBox.4Cl” value was -0.5 kcal/mol and the “ΔΔH, gain in binding enthalpy compared with ExBox.4Cl” value was -6.7 kcal/mol. For the same compound, the solubility entry in “Solubility observations” (MeCN) is given as “slightly soluble”. Besides, the solubility result in “Solubility observations” (water and MeOH) is reported as “highly soluble”. In data set [7] (water), the “blue fluorescence emission range” value is on record as 350-550 nm and the fluorescence quantum yield stood at 10%.
